Test system: liver gene expression
Test: RNA-Seq of liver of germ-free mice treated with 50 mg/kg/d N-methylserotonin
Type: in vivo, germ-free C57BL/6J mice
Experimental: RNA-Seq of liver and colonic tissue. Frozen tissue was broken into small pieces and ground into a very fine powder under liquid nitrogen using a mortar and pestle. A 25 mg aliquot of powdered tissue was then aliquoted into shearing matrix F (MP Bio) pre-chilled in liquid nitrogen; 0.5 mL of buffer LBP (Takara) was added immediately and the mixture was placed on a 4° C. cold block. Samples were then disrupted (Biospec bead beater; 2 minutes). The remaining steps in the RNA isolation procedure were performed using a Takara Nucleospin RNA Plus kit. […] Libraries were sequenced using an Illumina Hi-Seq instrument (paired end 75 nucleotide reads; 1.43×10^7±3.74×10^6 reads/liver sample, and 3.27×10^7±1.23×10^6 reads/colon sample). Reads were aligned to the Mus musculus GRCm39 genome assembly with STAR version 2.7.0d. Gene count data were generated from the number of uniquely aligned reads (featureCounts Subread version 1.6.2a). The R package DESEQ2 was used to perform differential gene expression analysis; results were filtered based on an adjusted Benjamini and Hochberg FDR p-value<0.05. Gene set enrichment analysis was carried out using ClusterProfiler with an adjusted p-value cut-off of <0.05 and minimum gene-set size of 3; over-representation was carried out using a loge fold-change cut-off of >1.
Per2 promotes glycogen synthesis. Moreover, genetically engineered disruption of Per3 is associated with resistance to leptin with resulting weight gain, while its deletion directly leads to increased adipogenesis. […] Nfil3 serves as an important link between the gut microbiota, intestinal epithelial lipid metabolism and body composition. […] Moreover, genetic ablation of Nfil3 attenuates high fat diet-induced obesity in mice.

## CNCCc1c[nH]c2ccc(O)cc12 [N-methylserotonin]
50 mg/kg/d vs untreated
  hepatic levels of Nfil3 mRNA: statistically significantly decreased
  liver expression of Arntl and Clock: significantly decreased expression
  liver expression of Per2, Per3, and Nr1d2: significant increases in expression
50 mg/kg/d vs untreated, FDR adjusted p<0.05
  number of genes with statistically significant differences in expression in liver: 716 genes
Upregulated gene in liver: 0610005C13Rik
  log2 fold-change, 0610005C13Rik (Entrez 71661): 0.39
Upregulated gene in liver: 2810013P06Rik
  log2 fold-change, 2810013P06Rik (Entrez 100503178): 0.57
Upregulated gene in liver: 4930523C07Rik
  log2 fold-change, 4930523C07Rik (Entrez 67647): 0.33
Upregulated gene in liver: Arl13b
  log2 fold-change, Arl13b (Entrez 68146): 0.37
Upregulated gene in liver: Ccne2
  log2 fold-change, Ccne2 (Entrez 12448): 0.70
Upregulated gene in liver: Clic1
  log2 fold-change, Clic1 (Entrez 114584): 0.35
Upregulated gene in liver: Crebrf
  log2 fold-change, Crebrf (Entrez 77128): 0.32
Upregulated gene in liver: Dixdc1
  log2 fold-change, Dixdc1 (Entrez 330938): 0.32
Upregulated gene in liver: Fam50a
  log2 fold-change, Fam50a (Entrez 108160): 0.41
Upregulated gene in liver: Fam126b
  log2 fold-change, Fam126b (Entrez 213056): 0.31
Upregulated gene in liver: Hebp1
  log2 fold-change, Hebp1 (Entrez 15199): 0.38
Upregulated gene in liver: Ihh
  log2 fold-change, Ihh (Entrez 16147): 0.74
Upregulated gene in liver: Kyat1
  log2 fold-change, Kyat1 (Entrez 70266): 0.24
Upregulated gene in liver: Map1lc3b
  log2 fold-change, Map1lc3b (Entrez 67443): 0.28
Upregulated gene in liver: Mbtd1
  log2 fold-change, Mbtd1 (Entrez 103537): 0.48
Upregulated gene in liver: Mxi1
  log2 fold-change, Mxi1 (Entrez 17859): 0.29
Upregulated gene in liver: Pdcd4
  log2 fold-change, Pdcd4 (Entrez 18569): 0.36
Upregulated gene in liver: Pnldc1
  log2 fold-change, Pnldc1 (Entrez 240023): 0.83
Upregulated gene in liver: Prkag2
  log2 fold-change, Prkag2 (Entrez 108099): 0.36
Upregulated gene in liver: Rcl1
  log2 fold-change, Rcl1 (Entrez 59028): 0.28
Upregulated gene in liver: Rps15
  log2 fold-change, Rps15 (Entrez 20054): 0.38
Upregulated gene in liver: Serpina7
  log2 fold-change, Serpina7 (Entrez 331535): 0.41
Upregulated gene in liver: Smarcd2
  log2 fold-change, Smarcd2 (Entrez 83796): 0.27
Upregulated gene in liver: Syne3, treated vs untreated germ-free mice
  log2 fold-change, Syne3 (Entrez 212073): 0.57
Upregulated gene in liver: Tbc1d10a
  log2 fold-change, Tbc1d10a (Entrez 103724): 0.61
Upregulated gene in liver: Tedc2
  log2 fold-change, Tedc2 (Entrez 72016): 0.43
Upregulated gene in liver: Ube2b
  log2 fold-change, Ube2b (Entrez 22210): 0.41
Upregulated gene in liver: Uchl5
  log2 fold-change, Uchl5 (Entrez 56207): 0.34
Upregulated gene in liver: Zc3h6
  log2 fold-change, Zc3h6 (Entrez 78751): 0.63
Upregulated gene in liver: Zfp64
  log2 fold-change, Zfp64 (Entrez 22722): 0.41
Upregulated gene in liver: Zfp960
  log2 fold-change, Zfp960 (Entrez 449000): 0.60

— patent publication US20250345370A1, “MICROBIAL LIBERATION OF N-METHYLSEROTONIN FROM ORANGE FIBER” (Washington University, priority 2022, published 2025)
